Laboratory results as given in patent US20060069132A1, “Azolecarboxamide herbicides” (priority 2004, published 2006).
Read-outs that look alike come from different tables or passages of the source.

Tests used:
morningglory = experiment: Test B pre-/postemergence herbicide test; format: in vivo, Ipomoea coccinea; conditions: Ipomoea, 336 h; for pest or weed control at 500 g/ha: 500 g ai/ha; for pest or weed control at 125 g/ha: 125 g ai/ha
In short: (§1)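 Species tested were Echinochloa crus-galli, Ipomoea coccinea, Xanthium strumarium and Oryza sativa, treated both before emergence and at the 1- to 4-leaf stage; rice and barnyardgrass were also tested under flooding at 2 leaves. Greenhouse incubation lasted 13–15 days before visual 0–100 scoring.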

rice = experiment: Test B flooded paddy test; format: in vivo, Oryza sativa; conditions: Oryza sativa, 336 h, 1000 g ai/ha, visual rating, scale 0 to 100 (0 no effect, 100 complete control), 13 to 15 days, read-out: Rice plant response rating
In short: (§2)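 Plants grow to 1- to 4-leaf stage (2–18 cm) for postemergence spraying, or to 2-leaf stage for the paddy test. Formulated compound is applied. Greenhouse holding lasts 13–15 days. Response is scored visually relative to controls, 0 no effect to 100 complete control; a dash means no result.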

cocklebur = experiment: Test B pre-/postemergence herbicide test; format: in vivo, Xanthium strumarium; conditions: Xanthium strumarium; for pest or weed control at 500 g/ha: 500 g ai/ha; for pest or weed control at 125 g/ha: 125 g ai/ha
In short: as §1

wheat = experiment: Test B postemergence herbicide test; format: in vivo, Triticum aestivum; conditions: scale 0 (no effect) to 100 (complete control)
In short: (§3)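 Formulated test chemicals went onto postemergence plants measuring 2 to 18 cm, at one to four leaves. For the paddy assay, species had reached two leaves. Scoring took place 13–15 days later by eye, relative to untreated plants, using 0 for no effect up to 100 for full control.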

lambsquarters = experiment: Test B pre-/postemergence herbicide test; format: in vivo, Chenopodium album; conditions: Chenopodium album, 336 h; for pest or weed control at 500 g/ha: 500 g ai/ha; for pest or weed control at 125 g/ha: 125 g ai/ha
In short: (§4)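 Pre: seeds sown, then sprayed. Post: 1–4-leaf plants (2–18 cm) sprayed at the same time. Paddy: flooded, treated at 2-leaf stage. Formulation: non-phytotoxic solvent with surfactant. Greenhouse 13–15 days; visual 0–100 score relative to controls.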

barnyardgrass [1] = experiment: Test B flooded paddy test; format: in vivo, Echinochloa crus-galli; conditions: Echinochloa crus-galli, 336 h, 1000 g ai/ha, visual rating, scale 0 to 100 (0 no effect, 100 complete control), 13 to 15 days, read-out: Barnyardgrass plant response rating
In short: as §2

pigweed = experiment: Test B pre-/postemergence herbicide test; format: in vivo, Amaranthus retroflexus; conditions: Amaranthus retroflexus, 336 h; for pest or weed control at 500 g/ha: 500 g ai/ha; for pest or weed control at 125 g/ha: 125 g ai/ha
In short: as §4

large crabgrass = experiment: Test B pre-/postemergence herbicide test; format: in vivo, Digitaria sanguinalis; conditions: Digitaria sanguinalis; for pest or weed control at 500 g/ha: 500 g ai/ha; for pest or weed control at 125 g/ha: 125 g ai/ha
In short: as §4

velvetleaf = experiment: Test B pre-/postemergence herbicide test; format: in vivo, Abutilon theophrasti; conditions: Abutilon theophrasti, 336 h; for pest or weed control at 500 g/ha: 500 g ai/ha; for pest or weed control at 125 g/ha: 125 g ai/ha
In short: as §4

corn = experiment: Test B pre-/postemergence herbicide test; format: in vivo, Zea mays; conditions: Zea mays
In short: as §4

giant foxtail = experiment: Test B pre-/postemergence herbicide test; format: in vivo, Setaria faberi; conditions: Setaria faberi, 336 h; for pest or weed control at 500 g/ha: 500 g ai/ha; for pest or weed control at 125 g/ha: 125 g ai/ha
In short: as §4

wild oat = experiment: Test B postemergence herbicide test; format: in vivo, Avena fatua; conditions: scale 0 (no effect) to 100 (complete control)
In short: as §3

Surinam grass = experiment: Test B pre-/postemergence herbicide test; format: in vivo, Urochloa decumbens; conditions: Urochloa decumbens; for pest or weed control at 500 g/ha: 500 g ai/ha; for pest or weed control at 125 g/ha: 125 g ai/ha
In short: as §4

[2] = system: small flower umbrella sedge; experiment: Test B flooded paddy test; format: in vivo, Cyperus difformis; conditions: Cyperus difformis, 336 h, 1000 g ai/ha, visual rating, scale 0 to 100 (0 no effect, 100 complete control), 13 to 15 days, read-out: Sedge, Umbrella plant response rating
In short: as §2

barnyardgrass [3] = experiment: Test B pre-/postemergence herbicide test; format: in vivo, Echinochloa crus-galli; conditions: Echinochloa crus-galli; for pest or weed control at 500 g/ha: 500 g ai/ha; for pest or weed control at 125 g/ha: 125 g ai/ha
In short: as §1

[4] = Postemergence, 500 g ai/ha, visual rating after 13 to 15 days

CCn1nc(C(C)(C)C)cc1C(=O)Nc1cccc2c1CN(C)C2=O [Compound 55, N-(2,3-dihydro-2-methyl-1-oxo-1H-isoindol-4-yl)-3-(1,1-dimethylethyl)-1-ethyl-1H-pyrazole-5-carboxamide]
10: Plant response rating, Wheat (wheat; [4])
20%: pest or weed control at 125 g/ha (velvetleaf; post-emergence, postemergence, visual rating, scale 0 (no effect) to 100 (complete control), read-out: Velvetleaf plant response rating) | plant injury at 125 g/ha (corn; post-emergence, postemergence, 125 g ai/ha, visual rating, scale 0 (no effect) to 100 (complete control), read-out: Corn plant response rating) | plant injury at 500 g/ha (corn; pre-emergence, Preemergence, 500 g ai/ha, scale 0 to 100, read-out: Corn plant response rating)
80%: pest or weed control at 125 g/ha (pigweed; pre-emergence, preemergence, 0 to 100 scale, 0 is no effect, 100 is complete control, read-out: Plant response rating, Pigweed) | pest or weed control at 500 g/ha (Surinam grass; pre-emergence, Preemergence, scale 0 to 100, read-out: Surinam Grass plant response rating) | pest or weed control at 1000 g/ha [2] | pest or weed control at 125 g/ha (barnyardgrass [3]; pre-emergence, preemergence, 0 to 100 scale, 0 is no effect, 100 is complete control, read-out: Plant response rating, Barnyardgrass)
90%: pest or weed control at 1000 g/ha (barnyardgrass [1]) | pest or weed control at 125 g/ha (large crabgrass; pre-emergence, preemergence, 0 to 100 scale, 0 is no effect, 100 is complete control, read-out: Plant response rating, Crabgrass, Large)
0%: pest or weed control at 125 g/ha (morningglory; pre-emergence, preemergence, 0 to 100 scale, 0 is no effect, 100 is complete control, read-out: Plant response rating, Morningglory) | pest or weed control at 125 g/ha (cocklebur; pre-emergence, preemergence, 0 to 100 scale, 0 is no effect, 100 is complete control, read-out: Plant response rating, Cocklebur) | pest or weed control at 125 g/ha (velvetleaf; pre-emergence, preemergence, 0 to 100 scale, 0 is no effect, 100 is complete control, read-out: Plant response rating, Velvetleaf) | Corn plant response rating (crop injury, 0 = no effect, 100 = complete kill) at 125 g/ha (corn; pre-emergence, preemergence, 125 g ai/ha, 0 to 100 scale, 0 is no effect, 100 is complete control) | pest or weed control at 125 g/ha (giant foxtail; post-emergence, postemergence, visual rating, scale 0 (no effect) to 100 (complete control), read-out: Foxtail, Giant plant response rating)
100%: pest or weed control at 500 g/ha (lambsquarters; pre-emergence, Preemergence, scale 0 to 100, read-out: Lambsquarters plant response rating) | pest or weed control at 500 g/ha (pigweed; pre-emergence, Preemergence, scale 0 to 100, read-out: Pigweed plant response rating) | pest or weed control at 500 g/ha (large crabgrass; pre-emergence, Preemergence, scale 0 to 100, read-out: Crabgrass, Large plant response rating) | pest or weed control at 500 g/ha (giant foxtail; pre-emergence, Preemergence, scale 0 to 100, read-out: Foxtail, Giant plant response rating) | pest or weed control at 500 g/ha (barnyardgrass [3]; pre-emergence, Preemergence, scale 0 to 100, read-out: Barnyardgrass plant response rating)
30%: pest or weed control at 500 g/ha (velvetleaf; pre-emergence, Preemergence, scale 0 to 100, read-out: Velvetleaf plant response rating) | Corn plant response rating (crop injury, 0 = no effect, 100 = complete kill) at 500 g/ha (corn; post-emergence, Postemergence, 500 g ai/ha, visual rating after 13 to 15 days, scale 0 (no effect) to 100 (complete control))
70%: plant injury at 1000 g/ha (rice) | pest or weed control at 500 g/ha (lambsquarters; post-emergence, Postemergence, visual rating after 13 to 15 days, scale 0 (no effect) to 100 (complete control), read-out: Plant response rating, Lambsquarters) | pest or weed control at 125 g/ha (lambsquarters; post-emergence, postemergence, visual rating, scale 0 (no effect) to 100 (complete control), read-out: Lambsquarters plant response rating) | pest or weed control at 125 g/ha (lambsquarters; pre-emergence, preemergence, 0 to 100 scale, 0 is no effect, 100 is complete control, read-out: Plant response rating, Lambsquarters)
60%: pest or weed control at 125 g/ha (giant foxtail; pre-emergence, preemergence, 0 to 100 scale, 0 is no effect, 100 is complete control, read-out: Plant response rating, Foxtail, Giant)
40%: pest or weed control at 500 g/ha (cocklebur; post-emergence, Postemergence, visual rating after 13 to 15 days, scale 0 (no effect) to 100 (complete control), read-out: Plant response rating, Cocklebur) | pest or weed control at 500 g/ha (pigweed; post-emergence, Postemergence, visual rating after 13 to 15 days, scale 0 (no effect) to 100 (complete control), read-out: Plant response rating, Pigweed) | pest or weed control at 500 g/ha (velvetleaf; post-emergence, Postemergence, visual rating after 13 to 15 days, scale 0 (no effect) to 100 (complete control), read-out: Plant response rating, Velvetleaf)
50%: pest or weed control at 125 g/ha (Surinam grass; pre-emergence, preemergence, 0 to 100 scale, 0 is no effect, 100 is complete control, read-out: Plant response rating, Surinam Grass)
20: Plant response rating, Oat, Wild (wild oat; [4])
10%: pest or weed control at 500 g/ha (morningglory; post-emergence, Postemergence, visual rating after 13 to 15 days, scale 0 (no effect) to 100 (complete control), read-out: Plant response rating, Morningglory) | pest or weed control at 125 g/ha (morningglory; post-emergence, postemergence, visual rating, scale 0 (no effect) to 100 (complete control), read-out: Morningglory plant response rating) | pest or weed control at 500 g/ha (morningglory; pre-emergence, Preemergence, scale 0 to 100, read-out: Morningglory plant response rating) | pest or weed control at 125 g/ha (cocklebur; post-emergence, postemergence, visual rating, scale 0 (no effect) to 100 (complete control), read-out: Cocklebur plant response rating) | pest or weed control at 500 g/ha (cocklebur; pre-emergence, Preemergence, scale 0 to 100, read-out: Cocklebur plant response rating) | plant injury at 125 g/ha (wheat; Triticum aestivum, post-emergence, 336 h, postemergence, 125 g ai/ha, visual rating, read-out: Wheat plant response rating) | pest or weed control at 125 g/ha (pigweed; post-emergence, postemergence, visual rating, scale 0 (no effect) to 100 (complete control), read-out: Pigweed plant response rating) | pest or weed control at 500 g/ha (large crabgrass; post-emergence, Postemergence, visual rating after 13 to 15 days, scale 0 (no effect) to 100 (complete control), read-out: Plant response rating, Crabgrass, Large) | pest or weed control at 125 g/ha (large crabgrass; post-emergence, postemergence, visual rating, scale 0 (no effect) to 100 (complete control), read-out: Crabgrass, Large plant response rating) | pest or weed control at 500 g/ha (giant foxtail; post-emergence, Postemergence, visual rating after 13 to 15 days, scale 0 (no effect) to 100 (complete control), read-out: Plant response rating, Foxtail, Giant) | pest or weed control at 125 g/ha (wild oat; Avena fatua, post-emergence, 336 h, postemergence, 125 g ai/ha, visual rating, read-out: Oat, Wild plant response rating) | pest or weed control at 500 g/ha (Surinam grass; post-emergence, Postemergence, visual rating after 13 to 15 days, scale 0 (no effect) to 100 (complete control), read-out: Plant response rating, Surinam Grass) | pest or weed control at 125 g/ha (Surinam grass; post-emergence, postemergence, visual rating, scale 0 (no effect) to 100 (complete control), read-out: Surinam Grass plant response rating) | pest or weed control at 500 g/ha (barnyardgrass [3]; post-emergence, Postemergence, visual rating after 13 to 15 days, scale 0 (no effect) to 100 (complete control), read-out: Plant response rating, Barnyardgrass) | pest or weed control at 125 g/ha (barnyardgrass [3]; post-emergence, postemergence, visual rating, scale 0 (no effect) to 100 (complete control), read-out: Barnyardgrass plant response rating)
